In ChEMBL document CHEMBL3351872, “2- and 3-substituted imidazo[1,2-a]pyrazines as inhibitors of bacterial type IV secretion” (Bioorg Med Chem, 2014):

Experiment: Inhibition of Helicobacter pylori VirB11 HP0525 ATPase expressed in Escherichia coli assessed as reduction in inorganic phosphate release by colorimetric ATPase assay

Cc1ccc(S(=O)(=O)Nc2nccn3c(-c4ccc5ccccc5c4)cnc23)cc1 and Cc1ccc(S(=O)(=O)NCCNc2nc(Br)cn3cc(-c4ccc5ccccc5c4)nc23)cc1 are the same in IC50: 77 µM for the first, 77 µM for the second.

With Cc1ccc(S(=O)(=O)Nc2ccc(Nc3nc(Br)cn4cc(-c5ccc6ccccc6c5)nc34)cc2)cc1 the IC50 was 6 µM.
